{"source": "patent US10022356B2", "about": "“Compounds for treatment of cancer” (UNIVERSITY OF TENNESSEE RESEARCH FOUNDATION, priority 2013, dated 2018)", "key": {"[1]": {"assay": "Aqueous solubility (Multiscreen Solubility Filter Plate, LC-MS/MS)", "format": "physicochemical", "conditions": "PBS pH 7.4", "experimental": "The solubility of drugs was determined by Multiscreen Solubility Filter Plate (Millipore Corporate, Billerica, Mass.) coupled with LC-MS/MS."}, "[2]": {"assay": "Pharmacokinetic study in Sprague-Dawley rats", "conditions": "rat"}, "B16-F1 melanoma cells": {"tested_on": "B16-F1 melanoma cells", "assay": "B16-F1 melanoma colony formation assay in soft agar", "format": "cell-based, mouse", "conditions": "14 days; tested 20, 100, 500 nM", "protocol": "B16-F1 melanoma cells were plated at a colony-forming density (2000 cells per well on six-well plates) on top of 0.8% base agar. Cells were grown in 0.4% agar together with DMEM medium supplemented with fetal bovine serum and an antibiotic-antimycotic solution at 37° C. in an atmosphere of 95% air and 5% CO2. […] Compounds were added to the media from 1 mM DMSO stock solutions, and a corresponding dilution of DMSO was used as control. Cells were grown for 14 days. Plates were photographed, and the number of colonies was measured by Artek 880 Automated Colony Counter (Artek Systems Corporation, Farmingdale, N.Y.)."}, "[3]": {"tested_on": "metastasis of melanoma to the lungs", "assay": "Melanoma lung metastasis model in mice", "format": "in vivo", "conditions": "i.p. injection 5 days per week for 2 weeks (FIG. 28)", "text": "Panel A: Representative photos of lungs with melanoma nodules (black dots, n=8 per group). Treatment was i.p. injection 5 days per week for 2 weeks. Panel B: Number of melanoma nodules on each lung. […] Panel C: Mouse body weight changes during the experiment. Points: means; bars: SD. Control: vehicle solution only."}, "A375": {"tested_on": "A375", "assay": "MTS cell proliferation assay on parental A375 cells", "format": "cell-based", "conditions": "Homo sapiens, A-375, read-out: IC50 value for proliferation inhibition", "experimental": "Compounds were dissolved in dimethyl sulfoxide (DMSO, Sigma-Aldrich, St. Louis, Mo.) to make stock solution of 10 mM. […] All cell lines were authenticated prior to use for this study. Cells were cultured in DMEM medium (Mediatech, Inc., Manassas, Va.), supplemented by 10% fetal bovine serum (FBS, Atlanta Biologicals, Lawrenceville, Ga.), 1% antibiotic/antimycotic mixture (Sigma-Aldrich, St. Louis, Mo.) and 5 μg/mL bovine insulin (Sigma-Aldrich, St. Louis, Mo.).\nCell proliferation viability was investigated using MTS or SRB assay as described previously. […] Drug concentrations were selected based on the IC50 value of each drug tested from a pilot study."}, "A375RF21 [4]": {"tested_on": "A375RF21", "assay": "MTS cell proliferation assay on vemurafenib-resistant A375RF21 cells", "format": "cell-based", "conditions": "Homo sapiens, read-out: IC50 value for proliferation inhibition", "text": "(§1) Cell proliferation viability was investigated using MTS or SRB assay as described previously. An in vitro study of the combination of vemurafenib and the tubulin inhibitors was designed and conducted using CalcuSyn software (Biosoft, Ferguson, Mo.) with five duplicates of each set of treatment. Drug concentrations were selected based on the IC50 value of each drug tested from a pilot study."}, "A375RF21 [5]": {"tested_on": "A375RF21", "assay": "Annexin V/propidium iodide apoptosis detection in A375RF21 cells", "format": "cell-based, human", "conditions": "48 hours incubation"}, "A375RF21 xenograft": {"tested_on": "A375RF21 xenograft", "assay": "A375RF21 tumor xenograft in nude mice", "format": "in vivo", "protocol": "Seven to eight week old male nude mice were purchased from Charles River Laboratories International, Inc. (Wilmington, Mass.). A375RF21 cells were suspended in ice-cold phenol red-free and FBS-free DMEM medium without FBS and mixed with high concentration Matrigel (BD Biosciences, San Joes, Calif.) at ratio of 1:1 right before use. 100 μL of this mixture containing 3×10^6 cells were injected subcutaneously (s.c.) to the left-side dorsal flank of each mouse. One week after the inoculation, the mice were randomized into four groups (n=7 for the initial low dose and n=5 for subsequent high dose drug combination) and the treatments started. […] Vehicle control group was i.p. injected with same volume (100 μL) of PEG300 at the same dosing frequency. At the end of the experiments, mice were euthanized and tumor tissue were isolated, weighted and then fixed in 10% buffered formalin phosphate solution.\nTumor volume and body weight of each mouse were evaluated three times a week."}, "in vitro": {"assay": "in vitro", "conditions": "human, liver microsomes, pH 7.4"}, "[6]": {"tested_on": "three melanoma cell lines and four human prostate cancer cell lines", "assay": "Antiproliferative activity quoted in the SAR text (average of all seven cell lines)", "format": "cell-based"}, "LNCaP": {"tested_on": "LNCaP", "assay": "SRB cytotoxicity assay, LNCaP", "format": "cell-based, human", "conditions": "Reversed aryl benzoyl imidazole (RABI), Tables 10A/10B; read-out: LNCaP (nM), inhibitory effects"}, "Du 145": {"tested_on": "Du 145", "assay": "SRB cytotoxicity assay, Du 145", "format": "cell-based, human", "conditions": "RABI, Tables 10A/10B; read-out: DU145 (nM), inhibitory effects"}, "PPC-1": {"tested_on": "PPC-1", "assay": "SRB cytotoxicity assay, PPC-1", "format": "cell-based, human", "conditions": "RABI, Tables 10A/10B; read-out: PPC1 (nM), inhibitory effects"}, "PC-3": {"tested_on": "PC-3", "assay": "SRB cytotoxicity assay, PC-3", "conditions": "read-out: PC3 (nM), inhibitory effects; RABI, Tables 10A/10B"}, "B16-F1 melanoma": {"tested_on": "B16-F1 melanoma", "assay": "B16-F1 melanoma tumors in C57/BL mice", "format": "in vivo", "conditions": "60 mg/kg; after 13 days of treatment; C57BL/6 mice", "experimental": "C57BL/6 mice bearing B16-F1 melanoma allograft (n=5 per group). Each mouse received 0.5×10^6 cells by s.c. injection into the flank. 30 μL i.p. daily treatments were started when tumor size reached ˜100 mm^3. […] Control, vehicle solution only; points, means; bars, SD. DTIC, (5-(3,3,-dimethyl-1-triazenyl)-imidazole-4-carboxamide, dacarbazine.\nFemale C57/BL mice, age 4-6 weeks, were purchased from Harlan Laboratories (Harlan Laboratories Inc., Indianapolis, Ind.). The animal housing met the Association for Assessment and Accreditation and Laboratory Animal Care specifications. All of the procedures were conducted in accordance with guidelines of our Institutional Animal Care and Use Committee.\nThe cell suspension (100 μL) was injected subcutaneously in the right dorsal flank of each mouse. When tumor size reached about 100-150 mm^3, about 7 days after cell inoculation, all mice bearing tumors were divided into control and treatment groups based on tumor size (n=5 per group). Each group had similar average tumor size. Mice in control groups (negative control) were injected intraperitoneally with 50 μL vehicle solution only or DTIC at 60 mg/kg (positive control) once daily. Tumor volume was measured every 2 days with a traceable electronic digital caliper (Fisher Scientific, Inc., Pittsburgh, Pa.) and calculated using the formula a×b^2×0.5, where a and b represented the larger and smaller diameters, respectively. Tumor volume was expressed in cubic millimeters. Data were expressed as mean±SE for each group and plotted as a function of time. […] Animal activity and average body weight of each group were monitored during the entire experiment period to assess compound toxicity. At the end of treatment, all mice were euthanized by CO2 followed by cervical dislocation, and tumors were harvested for further studies."}, "[7]": {"tested_on": "A375 human melanoma xenograft", "assay": "A375 human melanoma xenograft in SHO nude mice", "format": "in vivo", "conditions": "60 mg/kg; after 31 days of treatment", "protocol": "FIG. 19 depicts in vivo study of ABI compounds. […] C57BL/6 mice bearing B16-F1 melanoma allograft (n=5 per group). Each mouse received 0.5×10^6 cells by s.c. injection into the flank. 30 μL i.p. daily treatments were started when tumor size reached ˜100 mm^3. […] SHO nude mice bearing an A375 human melanoma xenograft (n=5 per group). Each mouse received 2.5×10^6 cells by s.c. injection into the flank. 30 μL i.p. daily treatments were started when the tumor size reached ˜150 mm^3. Control, vehicle solution only; points, means; bars, SD. DTIC, (5-(3,3,-dimethyl-1-triazenyl)-imidazole-4-carboxamide, dacarbazine.\nAverage body weight of all groups increased slightly throughout the experiment period."}, "A375RF21 [8]": {"tested_on": "A375RF21", "assay": "In vitro combination assay (combination index) on A375RF21", "format": "cell-based, human", "conditions": "Treatment + Vemurafenib", "text": "as §1"}, "PC-3/TxR tumors": {"tested_on": "PC-3/TxR tumors", "conditions": "for Tumor size (mm^2) End / Tumor size (mm^2) Start: PC-3/TxR xenograft; for Tumor size (mm^2) End: day 1 and 9, end point day 19; for Tumor size (mm^2) Start: day 1 and 9, start"}, "[9]": {"assay": "Brain penetration (brain and plasma concentrations) in nude mice", "conditions": "docetaxel IP 10 mpk, 17ya PO 20 mpk, 55 PO 20 mpk"}, "[10]": {"conditions": "vemurafenib 30 mg/kg, 12da 15 mg/kg, n=5"}}, "note": "“And” between values parts separate entries of the source, which are not always exact repeats. Identical values can stand only once. Like-named read-outs stand apart in the source and are kept apart here."}
{"smiles": "COc1cc(C(=O)c2csc(-c3ccccc3)n2)cc(OC)c1OC", "note": "[1 h, reference compound]", "values": [{"measurement": "Aqueous solubility", "setting": "[1]", "result": "(1.1) μg/mL"}, {"measurement": "oral bioavailability", "setting": "[2]", "result": 3.3, "unit": "%"}]}
{"smiles": "COc1ccc(-c2nc(C(=O)c3ccc(F)cc3)c[nH]2)cc1", "note": "[12cb, (4-fluorophenyl)(2-(4-methoxyphenyl)-1H-imidazol-4-yl)methanone]", "values": [{"measurement": "concentration showing effective inhibition of B16-F1 colony formation", "setting": "B16-F1 melanoma cells", "result": 20, "unit": "nM"}, {"measurement": "metastasis of melanoma to the lungs", "setting": "[3]", "result": "inhibition"}]}
{"smiles": "COc1cc(C(=O)c2c[nH]c(-c3ccc(C)cc3)n2)cc(OC)c1OC", "note": "[12da, (2-(p-tolyl)-1H-imidazol-4-yl)(3,4,5-trimethoxyphenyl)methanone]", "values": [{"measurement": "IC50", "setting": "A375", "result": "0.0107 ± 0.0015", "unit": "µM"}, {"measurement": "IC50", "setting": "A375RF21 [4]", "result": "0.0136 ± 0.0044", "unit": "µM"}, {"measurement": "counted cell apoptosis or death (percentage sum of Q1, Q2 and Q4)", "setting": "A375RF21 [5]", "result": "11.8±3.0", "unit": "%"}, {"measurement": "TGI (%)", "setting": "A375RF21 xenograft; 12da 10 mg/kg, vemurafenib 20 mg/kg, i.p. once per day 5 days per week, after 3 weeks of treatment, n=7", "result": "38.12% and 38.12 ± 6.14%"}, {"measurement": "Tumor weight (gram)", "setting": "A375RF21 xenograft; 12da 10 mg/kg, vemurafenib 20 mg/kg, after 3 weeks of treatment, n=7", "result": "1.77 ± 0.11", "unit": "gram"}, {"measurement": "TGI (%)", "setting": "A375RF21 xenograft; [10]", "result": "72.72% and 72.72 ± 8.29%"}, {"measurement": "Tumor weight (gram)", "setting": "A375RF21 xenograft; [10]", "result": "0.51 ± 0.12", "unit": "gram"}, {"measurement": "metastasis of melanoma to the lungs", "setting": "[3]", "result": "inhibition"}]}
{"smiles": "COc1cc(C(=O)c2c[nH]c(-c3ccc(Cl)cc3)n2)cc(OC)c1OC", "note": "[12fa, (2-(4-chlorophenyl)-1H-imidazol-4-yl)(3,4,5-trimethoxyphenyl)methanone]", "values": [{"measurement": "solubility at […]", "setting": "[1]; phosphate buffered saline, aqueous buffer, kinetic from dmso stock", "result": 12, "unit": "µg/mL"}, {"measurement": "half-life at 0.5 μM", "setting": "in vitro", "result": 44, "unit": "min"}]}
{"smiles": "O=C(c1ccc(F)cc1)c1c[nH]c(-c2ccc(OCc3ccccc3)cc2)n1", "note": "[12jb, (2-(4-(benzyloxy)phenyl)-1H-imidazol-4-yl)(4-fluorophenyl)methanone]", "values": [{"measurement": "increase in activity compared with the para-hydroxy compound 12kb", "setting": "[6]", "result": 440, "unit": "fold"}]}
{"smiles": "O=C(c1ccc(Br)cc1)c1nc(-c2ccc(Br)cc2)c[nH]1", "note": "[70t]", "values": [{"measurement": "IC50", "setting": "LNCaP", "result": 16900, "unit": "nM"}, {"measurement": "IC50", "setting": "Du 145", "result": 25500, "unit": "nM"}, {"measurement": "IC50", "setting": "PPC-1", "result": 13200, "unit": "nM"}, {"measurement": "IC50", "setting": "PC-3", "result": 18900, "unit": "nM"}]}
{"smiles": "COc1ccc(C(=O)c2nc(-c3cc(OC)c(OC)c(OC)c3)c[nH]2)cc1", "note": "[70y]", "values": [{"measurement": "IC50", "setting": "LNCaP", "result": 708, "unit": "nM"}, {"measurement": "IC50", "setting": "PPC-1", "result": 5680, "unit": "nM"}, {"measurement": "IC50", "setting": "PC-3", "result": 10400, "unit": "nM"}]}
{"smiles": "CN(C)/N=N/c1[nH]cnc1C(N)=O", "note": "[DTIC, reference compound]", "values": [{"measurement": "melanoma tumor growth inhibition (TGI value)", "setting": "B16-F1 melanoma", "result": 51, "unit": "%"}, {"measurement": "melanoma tumor growth inhibition (TGI value)", "setting": "[7]", "result": 52, "unit": "%"}]}
{"smiles": "CC(=O)O[C@@]12CO[C@@H]1C[C@H](O)[C@@]1(C)C(=O)[C@H](O)C3=C(C)[C@@H](OC(=O)[C@H](O)[C@@H](NC(=O)OC(C)(C)C)c4ccccc4)C[C@@](O)([C@@H](OC(=O)c4ccccc4)[C@H]21)C3(C)C", "note": "[Docetaxel]", "values": [{"measurement": "CI ED75", "setting": "A375RF21 [8]", "result": 0.80}, {"measurement": "CI ED90", "setting": "A375RF21 [8]", "result": 0.90}, {"measurement": "counted cell apoptosis or death (percentage sum of Q1, Q2 and Q4)", "setting": "A375RF21 [5]", "result": "6.4±3.0", "unit": "%"}, {"measurement": "Tumor size (mm^2) End", "setting": "PC-3/TxR tumors; IV 10mpk", "result": "1774 ± 183", "unit": "mm^2"}, {"measurement": "Tumor size (mm^2) Start", "setting": "PC-3/TxR tumors; IV 10mpk", "result": "143 ± 20", "unit": "mm^2"}, {"measurement": "Tumor size (mm^2) End", "setting": "PC-3/TxR tumors; IV 20mpk", "result": "999 ± 905", "unit": "mm^2"}, {"measurement": "Tumor size (mm^2) Start", "setting": "PC-3/TxR tumors; IV 20mpk", "result": "170 ± 80", "unit": "mm^2"}, {"measurement": "TGI (%)", "setting": "PC-3/TxR tumors; mouse, in vivo, iv, 10 mg/kg", "result": 14, "unit": "%"}, {"measurement": "Brain (ng/mL), 4 hr", "setting": "[9]", "result": "20 ± 9", "unit": "ng/mL"}, {"measurement": "Plasma (ng/mL), 1 hr", "setting": "[9]", "result": "768 ± 92", "unit": "ng/mL"}, {"measurement": "Plasma (ng/mL), 4 hr", "setting": "[9]", "result": "345 ± 94", "unit": "ng/mL"}, {"measurement": "Brain (ng/mL), 1 hr", "setting": "[9]; mean ± SD, 3 nude mice", "result": "33 ± 14", "unit": "ng/mL"}]}
